The term CC50 denotes the concentration that lowers cell viability or growth by half. The EC50 is the concentration at which the effect is half-maximal.

Like-named read-outs stand apart in the source and are kept apart here.

The nature of series [1]: Compound cytotoxicity, XTT-based colorimetric assay. The class given is cell-based. The note with it: human. The protocol: Compound cytotoxicity and the corresponding CC50 values were determined using the same protocol as described in the antiviral assay except that uninfected cells were used. Cytotoxicity was assessed on day 4 in uninfected MT2 cells by using an XTT (2,3-bis[2-Methoxy-4-nitro-5-sulfophenyl]-2H-tetrazolium-5-carboxyanilide inner salt)-based colorimetric assay (Sigma-Aldrich, St Louis, Mo).
A general note: Tetrazolium dyes change colour on reduction, which living cells bring about.

Series [2] has as its system recombinant NL4-3 virus (nef section replaced with Renilla luciferase gene) in MT-2 cells. Kind of series: HIV cell culture assay (antiviral activity, luciferase readout). The class given is cell-based. As to conditions: Renilla, NL43, MT-2 cells infected for 4-5 days with recombinant NL4-3 Renilla luciferase virus. How it is done: HIV cell culture assay—MT-2 cells, 293T cells and the proviral DNA clone of NL4-3 virus were obtained from the NIH AIDS Research and Reference Reagent Program. MT-2 cells were propagated in RPMI 1640 media supplemented with 10% heat inactivated fetal bovine serum (FBS), […]. The 293T cells were propagated in DMEM media supplemented with 10% heat inactivated FBS, […]. A recombinant NL4-3 proviral clone, in which a section of the nef gene was replaced with the Renilla luciferase gene, was used to make the reference virus used in these studies. The recombinant virus was prepared through transfection of the recombinant NL4-3 proviral clone into 293T cells using Transit-293 Transfection Reagent from Mirus Bio LLC (Madison, WI). Supernatant was harvested after 2-3 days and the amount of virus present was titered in MT-2 cells using luciferase enzyme activity as a marker by measuring luciferase enzyme activity. Luciferase was quantitated using the EnduRen Live Cell Substrate from Promega (Madison, WI). Antiviral activities of compounds toward the recombinant virus were quantified by measuring luciferase activity in MT-2 cells infected for 4-5 days with the recombinant virus in the presence of serial dilutions of the compound.
The 50% effective concentration (EC50) was calculated by using the exponential form of the median effect equation where (Fa)=1/[1+(ED50/drug conc.)m](Johnson V A, Byington R T. Infectivity Assay. In Techniques in HIV Research. ed. Aldovini A, Walker B D. 71-76. New York: Stockton Press. 1990). Curve fitting and analysis were performed with ActivityBase XE Runner software version 9.1.0.4 using model 203 (ID Business Solutions, LTD, Guildford, UK).

The mark [3] stands for this setting: uninfected MT2 cells, day 4, XTT, read-out: CC50.

As to `CC1(F)CCN(CCn2nc(NS(C)(=O)=O)c3c(Cl)ccc(-n4c([C@H](Cc5cc(F)cc(F)c5)NC(=O)Cn5nc(C(F)F)c6c5C(F)(F)[C@@H]5C[C@H]65)nc5nc(C6CCC(F)(F)CC6)cc(C(F)F)c5c4=O)c32)CC1` (atropisomer, axis not shown; (P)) [Example 290, N-[(1S)-1-[(3P)-3-{4-chloro-1-[2-(4-fluoro-4-methylpiperidin-1-yl)ethyl]-3-methanesulfonamido-1H-indazol-7-yl}-7-(4,4-difluorocyclohexyl)-5-(difluoromethyl)-4-oxo-3H,4H-pyrido[2,3-d]pyrimidin-2-yl]-2-(3,5-difluorophenyl)ethyl]-2-[(2S,4R)-9-(difluoromethyl)-5,5-difluoro-7,8-diazatricyclo[4.3.0.0^2,^4]nona-1(6),8-dien-7-yl]acetamide], the CC50 at 4 days in series [1] (setting [3]) was more than 50 nM. Also, the EC50 in series [2] came to 0.023 nM.

On to `Cc1cc(C2CCC(F)(F)CC2)nc2nc([C@H](Cc3cc(F)cc(F)c3)NC(=O)Cn3nc(C(F)F)c4c3C(F)(F)[C@@H]3C[C@H]43)n(-c3ccc(Cl)c4c(NS(C)(=O)=O)nn(CCN5CCCC(F)(F)C5)c34)c(=O)c12` (atropisomer, axis not shown; (P)) [Example 14, N-[(1S)-1-[(3P)-3-{4-chloro-1-[2-(3,3-difluoropiperidin-1-yl)ethyl]-3-methanesulfonamido-1H-indazol-7-yl}-7-(4,4-difluorocyclohexyl)-5-methyl-4-oxo-3H,4H-pyrido[2,3-d]pyrimidin-2-yl]-2-(3,5-difluorophenyl)ethyl]-2-[(2S,4R)-9-(difluoromethyl)-5,5-difluoro-7,8-diazatricyclo[4.3.0.0^2,^4]nona-1(6),8-dien-7-yl]acetamide], for which the CC50 at 4 days in series [1] (setting [3]) was more than 50 nM. Moreover, the EC50 in series [2] amounted to 0.009 nM.

On to `C[C@@H]1CN(CCn2nc(NS(C)(=O)=O)c3c(Cl)ccc(-n4c([C@H](Cc5cc(F)cc(F)c5)NC(=O)Cn5nc(C6CC6)c6c5C[C@@H]5C[C@H]65)nc5nc(C6CCC(F)(F)CC6)cc(C(F)F)c5c4=O)c32)CC(C)(C)O1` (atropisomer, axis not shown; (P)) [Example 462, N-[(1S)-1-[(3P)-3-(4-chloro-3-methanesulfonamido-1-{2-[(6R)-2,2,6-trimethylmorpholin-4-yl]ethyl}-1H-indazol-7-yl)-7-(4,4-difluorocyclohexyl)-5-(difluoromethyl)-4-oxo-3H,4H-pyrido[2,3-d]pyrimidin-2-yl]-2-(3,5-difluorophenyl)ethyl]-2-[(2S,4S)-9-cyclopropyl-7,8-diazatricyclo[4.3.0.0^2,^4]nona-1(6),8-dien-7-yl]acetamide], for which the CC50 at 4 days in series [1] (setting [3]) was more than 20 nM. For the same compound, the EC50 in series [2] was 0.019 nM.

Turning to `CS(=O)(=O)Nc1nn(CCN2C[C@H](F)C[C@H](F)C2)c2c(-n3c([C@H](Cc4cc(F)cc(F)c4)NC(=O)Cn4nc(C(F)F)c5c4C(F)(F)[C@@H]4C[C@H]54)nc4nc(C5CCC(F)(F)CC5)cc(C(F)F)c4c3=O)ccc(Cl)c12` (atropisomer, axis not shown; (P)) [Example 291, N-[(1S)-1-[(3P)-3-(4-chloro-1-{2-[(3R,5S)-3,5-difluoropiperidin-1-yl]ethyl}-3-methanesulfonamido-1H-indazol-7-yl)-7-(4,4-difluorocyclohexyl)-5-(difluoromethyl)-4-oxo-3H,4H-pyrido[2,3-d]pyrimidin-2-yl]-2-(3,5-difluorophenyl)ethyl]-2-[(2S,4R)-9-(difluoromethyl)-5,5-difluoro-7,8-diazatricyclo[4.3.0.0^2,^4]nona-1(6),8-dien-7-yl]acetamide], in series [1] (setting [3]), the CC50 at 4 days was more than 50 nM. In series [2], the EC50 amounted to 0.012 nM.

With `COCCCn1nc(NS(C)(=O)=O)c2c(Cl)ccc(-n3c([C@H](Cc4cc(F)cc(F)c4)NC(=O)Cn4nc(C5CC5)c5c4C[C@@H]4C[C@H]54)nc4nc(C5(F)CCC(F)(F)CC5)cc(CN5C[C@@H](C)O[C@@H](C)C5)c4c3=O)c21` (atropisomer, axis not shown; (P)) [Example 602, N-[(1S)-1-[(3P)-3-[4-chloro-3-methanesulfonamido-1-(3-methoxypropyl)-1H-indazol-7-yl]-5-{[(2R,6S)-2,6-dimethylmorpholin-4-yl]methyl}-4-oxo-7-(1,4,4-trifluorocyclohexyl)-3H,4H-pyrido[2,3-d]pyrimidin-2-yl]-2-(3,5-difluorophenyl)ethyl]-2-[(2S,4S)-9-cyclopropyl-7,8-diazatricyclo[4.3.0.0^2,^4]nona-1(6),8-dien-7-yl]acetamide], the CC50 at 4 days in series [1] (setting [3]) was more than 20 nM. Further, the concentration for a half-maximal effect (EC50) in series [2] stood at 0.017 nM.

Take `CC1(C)CN(CCn2nc(NS(C)(=O)=O)c3c(Cl)ccc(-n4c([C@H](Cc5cc(F)cc(F)c5)NC(=O)Cn5nc(C6CC6)c6c5C[C@@H]5C[C@H]65)nc5nc(C6CCC(F)(F)CC6)cc(C(F)F)c5c4=O)c32)CC(C)(C)O1` (atropisomer, axis not shown; (P)) [Example 421, N-[(1S)-1-[(3P)-3-{4-chloro-3-methanesulfonamido-1-[2-(2,2,6,6-tetramethylmorpholin-4-yl)ethyl]-1H-indazol-7-yl}-7-(4,4-difluorocyclohexyl)-5-(difluoromethyl)-4-oxo-3H,4H-pyrido[2,3-d]pyrimidin-2-yl]-2-(3,5-difluorophenyl)ethyl]-2-[(2S,4S)-9-cyclopropyl-7,8-diazatricyclo[4.3.0.0^2,^4]nona-1(6),8-dien-7-yl]acetamide]: the CC50 at 4 days in series [1] (setting [3]) is more than 20 nM. Moreover, the EC50 in series [2] worked out at 0.012 nM.

For the compound `CC1(C)CN(CCn2nc(NS(C)(=O)=O)c3c(Cl)ccc(-n4c([C@H](Cc5cc(F)cc(F)c5)NC(=O)Cn5nc(C6CC6)c6c5C[C@@H]5C[C@H]65)nc5nc(C6CCC(F)(F)CC6)ccc5c4=O)c32)CC(C)(C)O1` (atropisomer, axis not shown; (P)) [Example 424, N-[(1S)-1-[(3P)-3-{4-chloro-3-methanesulfonamido-1-[2-(2,2,6,6-tetramethylmorpholin-4-yl)ethyl]-1H-indazol-7-yl}-7-(4,4-difluorocyclohexyl)-4-oxo-3H,4H-pyrido[2,3-d]pyrimidin-2-yl]-2-(3,5-difluorophenyl)ethyl]-2-[(2S,4S)-9-cyclopropyl-7,8-diazatricyclo[4.3.0.0^2,^4]nona-1(6),8-dien-7-yl]acetamide], the CC50 at 4 days in series [1] (setting [3]) is more than 20 nM. The EC50 in series [2] amounted to 0.012 nM.

In series [1], `CS(=O)(=O)Nc1nn(CCN2[C@@H]3CC[C@H]2COC3)c2c(-n3c([C@H](Cc4cc(F)cc(F)c4)NC(=O)Cn4nc(C5CC5)c5c4C[C@@H]4C[C@H]54)nc4nc(C5CCC(F)(F)CC5)cc(C(F)F)c4c3=O)ccc(Cl)c12` (atropisomer, axis not shown; (P)) [Example 289, N-[(1S)-1-[(3P)-3-(4-chloro-3-methanesulfonamido-1-{2-[(1R,5S)-3-oxa-8-azabicyclo[3.2.1]octan-8-yl]ethyl}-1H-indazol-7-yl)-7-(4,4-difluorocyclohexyl)-5-(difluoromethyl)-4-oxo-3H,4H-pyrido[2,3-d]pyrimidin-2-yl]-2-(3,5-difluorophenyl)ethyl]-2-[(2S,4S)-9-cyclopropyl-7,8-diazatricyclo[4.3.0.0^2,^4]nona-1(6),8-dien-7-yl]acetamide] registered a CC50 at 4 days of more than 50 nM. The EC50 in series [2] worked out at 0.025 nM.

Values taken from patent publication US12594276B2, “Inhibitors of human immunodeficiency virus replication” (ViiV Healthcare UK (No.5) Limited, priority 2024, dated 2026).
